The values below come from PubChem BioAssay AID1259407 (Chemical Carcinogenesis Research Information System (CCRIS), 2018).

The subject of this data set is CCRIS mutagenicity, Ames/micronucleus/aberration tests. As to the kind of experiment: CCRIS mutagenicity studies.

Active and inactive are the calls of the source. No rule for the calls is given here.

In the case of `CCOC(=O)OC(=O)OCC`, the mutagenic call (Test System: AMES SALMONELLA TYPHIMURIUM, Strain/Indicator: TA98, Metabolic Activation: NONE, Method: STANDARD PLATE) is “inactive; negative” and the mutagenic call (Test System: AMES SALMONELLA TYPHIMURIUM, Strain/Indicator: TA100, Metabolic Activation: NONE, Method: STANDARD PLATE) was “inactive; negative”.
For `O=[N+]([O-])c1ccc(-c2ncn[nH]2)o1`, where the note is “Test System: E. COLI, Strain/Indicator: WP2 UVRA, Metabolic Activation: NONE, Method: SPOT”, the mutagenic call was “active; positive”.
Regarding `O=[N+]([O-])c1ccc2ccc3cc4c(c5ccc1c2c35)C=C[C@H](O)[C@H]4O`, the mutagenic call by setting is: (Test System: AMES SALMONELLA TYPHIMURIUM, Strain/Indicator: TA98(1,8-DNP6), Metabolic Activation: NONE) “active; positive”; (Test System: AMES SALMONELLA TYPHIMURIUM, Strain/Indicator: TA98(1,8-DNP6), Metabolic Activation: RAT, LIVER, S-9, AROCLOR 1254) “active; positive”; (Test System: AMES SALMONELLA TYPHIMURIUM, Strain/Indicator: TA98(NR), Metabolic Activation: NONE) “active; positive”; (Test System: AMES SALMONELLA TYPHIMURIUM, Strain/Indicator: TA98(NR), Metabolic Activation: RAT, LIVER, S-9, AROCLOR 1254) “active; positive”; (Test System: AMES SALMONELLA TYPHIMURIUM, Strain/Indicator: TA98, Metabolic Activation: NONE) “active; positive”; (Test System: AMES SALMONELLA TYPHIMURIUM, Strain/Indicator: TA98, Metabolic Activation: RAT, LIVER, S-9, AROCLOR 1254) “active; positive”. The mutagenic call by setting is: (Test System: CHINESE HAMSTER OVARY, Strain/Indicator: CHO-K1-BH4 (HGPRT), Metabolic Activation: NONE) “active; positive”; (Test System: CHINESE HAMSTER OVARY, Strain/Indicator: CHO-K1-BH4 (HGPRT), Metabolic Activation: RAT, LIVER, S-9, 3-METHYLCHOLANTHRENE) “active; positive”.
